Assays:
Homo sapiens [1] = species: Homo sapiens; experiment: Selectivity for p38alpha MAP kinase (unknown origin) over EPHB2 (unknown origin)
Homo sapiens [2] = species: Homo sapiens; experiment: Selectivity for p38alpha MAP kinase (unknown origin) over MEK2 (unknown origin)
Homo sapiens [3] = species: Homo sapiens; experiment: Selectivity for p38alpha MAP kinase (unknown origin) over SGK3 (unknown origin)
Homo sapiens [4] = species: Homo sapiens; experiment: Selectivity for p38alpha MAP kinase (unknown origin) over EGFR G719C mutant (unknown origin)
Homo sapiens [5] = species: Homo sapiens; experiment: Selectivity for p38alpha MAP kinase (unknown origin) over IRAK4 (unknown origin)
Homo sapiens [6] = species: Homo sapiens; experiment: Selectivity for p38alpha MAP kinase (unknown origin) over SNF1LK2 (unknown origin)
Homo sapiens [7] = species: Homo sapiens; experiment: Selectivity for p38alpha MAP kinase (unknown origin) over MET D1228H mutant (unknown origin)
Homo sapiens [8] = species: Homo sapiens; experiment: Selectivity for p38alpha MAP kinase (unknown origin) over EPHA8 (unknown origin)
Homo sapiens [9] = species: Homo sapiens; experiment: Selectivity for p38alpha MAP kinase (unknown origin) over FGF-R2 (unknown origin)
Homo sapiens [10] = species: Homo sapiens; experiment: Selectivity for p38alpha MAP kinase (unknown origin) over FER (unknown origin)
Homo sapiens [11] = species: Homo sapiens; experiment: Selectivity for p38alpha MAP kinase (unknown origin) over TIE2 (unknown origin)
Homo sapiens [12] = species: Homo sapiens; experiment: Selectivity for p38alpha MAP kinase (unknown origin) over DAPK2 (unknown origin)
Homo sapiens [13] = species: Homo sapiens; experiment: Selectivity for p38alpha MAP kinase (unknown origin) over wild type MET (unknown origin)
Homo sapiens [14] = species: Homo sapiens; experiment: Selectivity for p38alpha MAP kinase (unknown origin) over EPHA1 (unknown origin)
Homo sapiens [15] = species: Homo sapiens; experiment: Selectivity for p38alpha MAP kinase (unknown origin) over MINK1 (unknown origin)
Homo sapiens [16] = species: Homo sapiens; experiment: Selectivity for p38alpha MAP kinase (unknown origin) over CK1-alpha1 (unknown origin)
[17] = target: STE20-like serine/threonine-protein kinase (Homo sapiens) (UniProt Q9H2G2); experiment: Inhibition of SLK (unknown origin) at 10 uM
Sequence of STE20-like serine/threonine-protein kinase (Homo sapiens) (Q9H2G2 whole entry, looked up): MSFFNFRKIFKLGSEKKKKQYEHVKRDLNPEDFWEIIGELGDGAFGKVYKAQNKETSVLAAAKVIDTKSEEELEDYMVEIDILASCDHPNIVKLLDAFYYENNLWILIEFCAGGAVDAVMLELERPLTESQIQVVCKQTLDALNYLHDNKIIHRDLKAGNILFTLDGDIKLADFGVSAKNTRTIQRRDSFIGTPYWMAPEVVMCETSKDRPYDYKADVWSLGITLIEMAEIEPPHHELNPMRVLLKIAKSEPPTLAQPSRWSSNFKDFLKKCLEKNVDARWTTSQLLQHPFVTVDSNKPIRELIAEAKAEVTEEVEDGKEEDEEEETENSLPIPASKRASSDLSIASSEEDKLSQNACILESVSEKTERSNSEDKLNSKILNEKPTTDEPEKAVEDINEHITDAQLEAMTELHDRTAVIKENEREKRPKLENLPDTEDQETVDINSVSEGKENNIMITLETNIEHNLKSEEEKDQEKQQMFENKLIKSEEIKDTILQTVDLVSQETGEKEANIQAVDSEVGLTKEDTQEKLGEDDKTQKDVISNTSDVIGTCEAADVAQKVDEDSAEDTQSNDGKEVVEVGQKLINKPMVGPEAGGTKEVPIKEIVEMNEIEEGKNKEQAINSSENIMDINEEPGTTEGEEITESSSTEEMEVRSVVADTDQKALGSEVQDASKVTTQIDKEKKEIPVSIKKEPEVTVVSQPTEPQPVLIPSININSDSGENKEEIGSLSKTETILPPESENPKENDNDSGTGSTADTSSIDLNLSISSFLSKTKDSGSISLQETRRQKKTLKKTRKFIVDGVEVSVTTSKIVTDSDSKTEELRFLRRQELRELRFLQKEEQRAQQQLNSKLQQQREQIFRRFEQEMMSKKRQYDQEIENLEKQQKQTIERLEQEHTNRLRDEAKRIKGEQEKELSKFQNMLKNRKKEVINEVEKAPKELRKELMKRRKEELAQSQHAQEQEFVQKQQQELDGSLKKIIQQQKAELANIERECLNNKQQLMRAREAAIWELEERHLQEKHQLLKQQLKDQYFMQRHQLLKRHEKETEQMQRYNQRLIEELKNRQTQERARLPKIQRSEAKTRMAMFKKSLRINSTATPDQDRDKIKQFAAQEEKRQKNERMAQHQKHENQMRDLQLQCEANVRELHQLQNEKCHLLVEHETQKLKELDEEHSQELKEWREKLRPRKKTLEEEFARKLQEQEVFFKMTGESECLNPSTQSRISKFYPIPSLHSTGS

Homo sapiens [18] = species: Homo sapiens; experiment: Selectivity for p38alpha MAP kinase (unknown origin) over mTOR (unknown origin)
Homo sapiens [19] = species: Homo sapiens; experiment: Selectivity for p38alpha MAP kinase (unknown origin) over MET Y1230A mutant (unknown origin)
Homo sapiens [20] = species: Homo sapiens; experiment: Selectivity for p38alpha MAP kinase (unknown origin) over RON (unknown origin)
Homo sapiens [21] = species: Homo sapiens; experiment: Selectivity for p38alpha MAP kinase (unknown origin) over MERTK (unknown origin)
Homo sapiens [22] = species: Homo sapiens; experiment: Selectivity for p38alpha MAP kinase (unknown origin) over PIM1 (unknown origin)
Homo sapiens [23] = species: Homo sapiens; experiment: Selectivity for p38alpha MAP kinase (unknown origin) over wild type FGFR1 (unknown origin)
Homo sapiens [24] = species: Homo sapiens; experiment: Selectivity for p38alpha MAP kinase (unknown origin) over PASK (unknown origin)
Homo sapiens [25] = species: Homo sapiens; experiment: Selectivity for p38alpha MAP kinase (unknown origin) over EPHA3 (unknown origin)
[26] = target: Calcium/calmodulin-dependent protein kinase type II subunit delta (Homo sapiens) (UniProt Q13557); experiment: Inhibition of CAMK2D (unknown origin) at 10 uM
Sequence of Calcium/calmodulin-dependent protein kinase type II subunit delta (Homo sapiens) (Q13557 whole entry): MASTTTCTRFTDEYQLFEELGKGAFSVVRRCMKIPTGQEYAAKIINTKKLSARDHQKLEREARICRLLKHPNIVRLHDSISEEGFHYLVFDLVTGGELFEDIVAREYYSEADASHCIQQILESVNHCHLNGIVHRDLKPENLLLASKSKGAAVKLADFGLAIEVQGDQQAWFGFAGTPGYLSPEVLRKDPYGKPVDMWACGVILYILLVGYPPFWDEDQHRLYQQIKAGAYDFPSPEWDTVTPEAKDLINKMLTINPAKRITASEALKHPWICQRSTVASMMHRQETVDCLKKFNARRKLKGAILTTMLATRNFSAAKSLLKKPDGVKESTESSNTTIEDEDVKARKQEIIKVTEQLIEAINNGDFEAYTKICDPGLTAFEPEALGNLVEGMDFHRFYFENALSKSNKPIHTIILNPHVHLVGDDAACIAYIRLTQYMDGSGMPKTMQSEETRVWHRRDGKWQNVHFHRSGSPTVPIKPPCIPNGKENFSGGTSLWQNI

[27] = target: T1, Mitogen-activated protein kinase 14 (Homo sapiens, UniProt Q16539); experiment: Competitive inhibition of p38alpha MAP kinase (unknown origin) in presence of 300 uM ATP
T1 sequence (Q16539 whole entry): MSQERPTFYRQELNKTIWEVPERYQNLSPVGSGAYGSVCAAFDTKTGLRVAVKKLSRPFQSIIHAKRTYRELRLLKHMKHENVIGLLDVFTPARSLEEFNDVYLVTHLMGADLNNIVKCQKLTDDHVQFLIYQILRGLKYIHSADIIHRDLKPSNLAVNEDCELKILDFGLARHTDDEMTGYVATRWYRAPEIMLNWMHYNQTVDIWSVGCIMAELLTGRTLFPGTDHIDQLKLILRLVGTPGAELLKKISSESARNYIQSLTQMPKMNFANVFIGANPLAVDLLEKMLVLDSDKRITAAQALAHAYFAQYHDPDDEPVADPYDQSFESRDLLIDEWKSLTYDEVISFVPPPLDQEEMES

Homo sapiens [28] = species: Homo sapiens; experiment: Selectivity for p38alpha MAP kinase (unknown origin) over PKC-nu (unknown origin)
Homo sapiens [29] = species: Homo sapiens; experiment: Selectivity for p38alpha MAP kinase (unknown origin) over CHK1 (unknown origin)
Homo sapiens [30] = species: Homo sapiens; experiment: Selectivity for p38alpha MAP kinase (unknown origin) over MET Y1230H mutant (unknown origin)
[31] = target: T1, Mitogen-activated protein kinase 14; experiment: Competitive inhibition of p38alpha MAP kinase (unknown origin) at 10 uM in presence of 100 uM ATP
Homo sapiens [32] = species: Homo sapiens; experiment: Selectivity for p38alpha MAP kinase (unknown origin) over wild-type ABL1 (unknown origin)
Homo sapiens [33] = species: Homo sapiens; experiment: Selectivity for p38alpha MAP kinase (unknown origin) over RET V804L mutant (unknown origin)
Homo sapiens [34] = species: Homo sapiens; experiment: Selectivity for p38alpha MAP kinase (unknown origin) over DNA-PK (unknown origin)
Homo sapiens [35] = species: Homo sapiens; experiment: Selectivity for p38alpha MAP kinase (unknown origin) over MAP3K7/MAP3K7IP1 (unknown origin)
Homo sapiens [36] = species: Homo sapiens; experiment: Selectivity for p38alpha MAP kinase (unknown origin) over TGFB-R2 (unknown origin)
Homo sapiens [37] = species: Homo sapiens; experiment: Selectivity for p38alpha MAP kinase (unknown origin) over JNK3 (unknown origin)
[38] = target: T1, Mitogen-activated protein kinase 14; experiment: Inhibition of p38alpha MAP kinase in human whole blood assessed as inhibition of LPS-induced TNFalpha release by ELISA
Homo sapiens [39] = species: Homo sapiens; experiment: Selectivity for p38alpha MAP kinase (unknown origin) over ARK5 (unknown origin)
Homo sapiens [40] = species: Homo sapiens; experiment: Selectivity for p38alpha MAP kinase (unknown origin) over MST2 (unknown origin)
Homo sapiens [41] = species: Homo sapiens; experiment: Selectivity for p38alpha MAP kinase (unknown origin) over IRAK1 (unknown origin)
Homo sapiens [42] = species: Homo sapiens; experiment: Selectivity for p38alpha MAP kinase (unknown origin) over SGK1 (unknown origin)
[43] = target: Mitogen-activated protein kinase 11 (Homo sapiens) (UniProt Q15759); experiment: Inhibition of p38beta MAP kinase (unknown origin) at 10 uM
Sequence of Mitogen-activated protein kinase 11 (Homo sapiens) (Q15759 whole entry): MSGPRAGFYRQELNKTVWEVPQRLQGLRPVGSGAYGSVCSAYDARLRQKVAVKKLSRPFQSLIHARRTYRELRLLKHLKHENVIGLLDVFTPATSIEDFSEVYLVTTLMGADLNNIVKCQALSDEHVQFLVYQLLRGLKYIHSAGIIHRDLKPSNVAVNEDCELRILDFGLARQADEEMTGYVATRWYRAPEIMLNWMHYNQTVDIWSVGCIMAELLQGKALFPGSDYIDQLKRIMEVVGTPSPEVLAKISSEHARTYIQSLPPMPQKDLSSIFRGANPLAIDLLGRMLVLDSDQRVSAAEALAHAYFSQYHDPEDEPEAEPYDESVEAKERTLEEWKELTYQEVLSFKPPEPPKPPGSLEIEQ

Homo sapiens [44] = species: Homo sapiens; experiment: Selectivity for p38alpha MAP kinase (unknown origin) over RAF1 Y340D/Y341D double mutant (unknown origin)

Question: Which results are given for `Cc1cc(F)c(NC(=O)c2ccsc2)cc1Nc1ccc2c(c1)OCc1ccc(OC[C@H](O)CO)cc1C2=O`?
Answer: Selectivity ratio (Homo sapiens [1]): > 1000; Selectivity ratio (Homo sapiens [2]): > 1000; Selectivity ratio (Homo sapiens [3]): > 1000; Selectivity ratio (Homo sapiens [4]): > 1000; Selectivity ratio (Homo sapiens [5]): > 1000; Selectivity ratio (Homo sapiens [6]): > 1000; Selectivity ratio (Homo sapiens [7]): > 1000; Selectivity ratio (Homo sapiens [8]): > 1000; Selectivity ratio (Homo sapiens [9]): > 1000; Selectivity ratio (Homo sapiens [10]): > 1000; Selectivity ratio (Homo sapiens [11]): > 1000; Selectivity ratio (Homo sapiens [12]): > 1000; Selectivity ratio (Homo sapiens [13]): > 1000; Selectivity ratio (Homo sapiens [14]): > 1000; Selectivity ratio (Homo sapiens [15]): > 1000; Selectivity ratio (Homo sapiens [16]): > 1000; inhibition [17]: > 50%; Selectivity ratio (Homo sapiens [18]): > 1000; Selectivity ratio (Homo sapiens [19]): > 1000; Selectivity ratio (Homo sapiens [20]): > 1000; Selectivity ratio (Homo sapiens [21]): > 1000; Selectivity ratio (Homo sapiens [22]): > 1000; Selectivity ratio (Homo sapiens [23]): > 1000; Selectivity ratio (Homo sapiens [24]): > 1000; Selectivity ratio (Homo sapiens [25]): > 1000; inhibition [26]: > 50%; IC50 [27]: 4 nM; Selectivity ratio (Homo sapiens [28]): > 1000; Selectivity ratio (Homo sapiens [29]): > 1000; Selectivity ratio (Homo sapiens [30]): > 1000; inhibition [31]: > 50%; Selectivity ratio (Homo sapiens [32]): > 1000; Selectivity ratio (Homo sapiens [33]): > 1000; Selectivity ratio (Homo sapiens [34]): > 1000; Selectivity ratio (Homo sapiens [35]): > 1000; Selectivity ratio (Homo sapiens [36]): > 1000; Selectivity ratio (Homo sapiens [37]): > 1000; IC50 [38]: 125 nM; Selectivity ratio (Homo sapiens [39]): > 1000; Selectivity ratio (Homo sapiens [40]): > 1000; Selectivity ratio (Homo sapiens [41]): > 1000; Selectivity ratio (Homo sapiens [42]): > 1000; inhibition [43]: > 50%; Selectivity ratio (Homo sapiens [44]): > 1000
